Activity calls are given as the source filed them. No cut-off for these calls is given here.
Target: T1, Kallikrein-1 (Homo sapiens, UniProt P06870)
Assay: Inhibition of recombinant human KLK1 expressed in baculovirus/insect cell expression system using Abz-KLRSSKQ-EDDnp peptide as substrate preincubated for 5 mins followed by substrate addition by FRET assay
Target sequence in this assay (P06870 whole entry): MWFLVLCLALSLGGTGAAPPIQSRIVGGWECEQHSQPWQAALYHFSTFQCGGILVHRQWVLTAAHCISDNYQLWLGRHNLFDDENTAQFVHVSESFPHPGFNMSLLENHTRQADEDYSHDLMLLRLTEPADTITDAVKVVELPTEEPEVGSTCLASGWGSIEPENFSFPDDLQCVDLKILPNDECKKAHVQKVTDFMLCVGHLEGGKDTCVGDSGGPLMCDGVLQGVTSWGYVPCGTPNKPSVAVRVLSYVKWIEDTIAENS

IC50 [µM] | SMILES
12.6 | CC(C)(C(=O)NC1CCCCC1)N(C(=O)Cc1ccc(O)cc1)[C@H]1CO[C@H]2[C@@H]1OC[C@@H]2N(C(=O)Cc1ccc(O)cc1)C(C)(C)C(=O)NC1CCCCC1
400 | CC(C)(C(=O)NC1CCCCC1)N(C(=O)c1ccccc1)[C@H]1CO[C@H]2[C@@H]1OC[C@H]2OCc1ccccc1
221 | CC(C)(C(=O)NC1CCCCC1)N(C(=O)Cc1ccc(F)cc1)[C@H]1CO[C@H]2[C@@H]1OC[C@H]2OCc1ccccc1
4 | CC(C)(C(=O)NC1CCCCC1)N(C(=O)Cc1ccc(O)cc1)[C@H]1CO[C@H]2[C@@H]1OC[C@H]2OCc1ccccc1
125 | COc1ccc(CC(=O)N([C@H]2CO[C@H]3[C@@H]2OC[C@H]3OCc2ccccc2)C(C)(C)C(=O)NC2CCCCC2)cc1

Target: T2, Kallikrein-7 (Homo sapiens, UniProt P49862)
Assay: Inhibition of recombinant human KLK7 expressed in baculovirus/insect cell expression system using Abz-KLYSSKQ-EDDnp peptide as substrate preincubated for 5 mins followed by substrate addition by FRET assay
Target sequence in this assay (P49862 whole entry): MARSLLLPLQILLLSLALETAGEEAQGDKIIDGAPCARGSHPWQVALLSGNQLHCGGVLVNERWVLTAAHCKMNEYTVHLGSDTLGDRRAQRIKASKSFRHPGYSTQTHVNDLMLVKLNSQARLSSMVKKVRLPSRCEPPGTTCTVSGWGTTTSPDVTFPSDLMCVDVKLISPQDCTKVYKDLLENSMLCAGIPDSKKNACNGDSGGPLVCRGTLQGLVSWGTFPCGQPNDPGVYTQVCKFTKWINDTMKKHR

IC50 [µM] | SMILES
133 | CC(C)(C(=O)NC1CCCCC1)N(C(=O)Cc1ccc(O)cc1)[C@H]1CO[C@H]2[C@@H]1OC[C@@H]2N(C(=O)Cc1ccc(O)cc1)C(C)(C)C(=O)NC1CCCCC1
572 | CC(C)(C(=O)NC1CCCCC1)N(C(=O)c1ccccc1)[C@H]1CO[C@H]2[C@@H]1OC[C@H]2OCc1ccccc1
185 | CC(C)(C(=O)NC1CCCCC1)N(C(=O)Cc1ccc(F)cc1)[C@H]1CO[C@H]2[C@@H]1OC[C@H]2OCc1ccccc1
249 | CC(C)(C(=O)NC1CCCCC1)N(C(=O)Cc1ccc(O)cc1)[C@H]1CO[C@H]2[C@@H]1OC[C@H]2OCc1ccccc1
272 | COc1ccc(CC(=O)N([C@H]2CO[C@H]3[C@@H]2OC[C@H]3OCc2ccccc2)C(C)(C)C(=O)NC2CCCCC2)cc1

Target: T1, Kallikrein-1
Assay: Reversible competitive inhibition of recombinant human KLK1 expressed in baculovirus/insect cell expression system using Abz-KLRSSKQ-EDDnp peptide as substrate at 2 to 8 uM by Lineweaver-Burk plot analysis
Target sequence in this assay (P06870 25-262 limits assumed): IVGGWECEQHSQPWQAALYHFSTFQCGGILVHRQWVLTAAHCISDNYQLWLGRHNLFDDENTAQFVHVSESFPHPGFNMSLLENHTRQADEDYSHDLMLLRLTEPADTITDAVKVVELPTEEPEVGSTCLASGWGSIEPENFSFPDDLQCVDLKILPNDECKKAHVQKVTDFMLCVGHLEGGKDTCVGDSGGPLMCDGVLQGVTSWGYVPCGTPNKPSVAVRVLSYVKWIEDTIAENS

inhibition | SMILES
Active | CC(C)(C(=O)NC1CCCCC1)N(C(=O)Cc1ccc(O)cc1)[C@H]1CO[C@H]2[C@@H]1OC[C@H]2OCc1ccccc1

Target: T1, Kallikrein-1
Assay: Competitive inhibition of recombinant human KLK1 expressed in baculovirus/insect cell expression system using Abz-KLRSSKQ-EDDnp peptide as substrate by Dixon plot analysis
Target sequence in this assay (P06870 whole entry): as the sequence (P06870 whole entry) above

Ki [µM] | SMILES
3.1 | CC(C)(C(=O)NC1CCCCC1)N(C(=O)Cc1ccc(O)cc1)[C@H]1CO[C@H]2[C@@H]1OC[C@H]2OCc1ccccc1

Target: T1, Kallikrein-1
Assay: Inhibition of recombinant human KLK1 expressed in baculovirus/insect cell expression system at 100 uM using Abz-KLRSSKQ-EDDnp peptide as substrate preincubated for 5 mins followed by substrate addition by FRET assay
Target sequence in this assay (P06870 25-262 limits assumed): as the sequence (P06870 25-262 limits assumed) above

inhibition | SMILES
Active | CC(C)(C(=O)NC1CCCCC1)N(C(=O)Cc1ccc(O)cc1)[C@H]1CO[C@H]2[C@@H]1OC[C@@H]2N(C(=O)Cc1ccc(O)cc1)C(C)(C)C(=O)NC1CCCCC1
Active | CC(C)(C(=O)NC1CCCCC1)N(C(=O)c1ccccc1)[C@H]1CO[C@H]2[C@@H]1OC[C@H]2OCc1ccccc1
Active | CC(C)(C(=O)NC1CCCCC1)N(C(=O)Cc1ccc(F)cc1)[C@H]1CO[C@H]2[C@@H]1OC[C@H]2OCc1ccccc1
Active | CC(C)(C(=O)NC1CCCCC1)N(C(=O)Cc1ccc(O)cc1)[C@H]1CO[C@H]2[C@@H]1OC[C@H]2OCc1ccccc1
Active | COc1ccc(CC(=O)N([C@H]2CO[C@H]3[C@@H]2OC[C@H]3OCc2ccccc2)C(C)(C)C(=O)NC2CCCCC2)cc1

Target: T2, Kallikrein-7
Assay: Inhibition of recombinant human KLK7 expressed in baculovirus/insect cell expression system at 100 uM using Abz-KLYSSKQ-EDDnp peptide as substrate preincubated for 5 mins followed by substrate addition by FRET assay
Target sequence in this assay (P49862 30-253 limits assumed): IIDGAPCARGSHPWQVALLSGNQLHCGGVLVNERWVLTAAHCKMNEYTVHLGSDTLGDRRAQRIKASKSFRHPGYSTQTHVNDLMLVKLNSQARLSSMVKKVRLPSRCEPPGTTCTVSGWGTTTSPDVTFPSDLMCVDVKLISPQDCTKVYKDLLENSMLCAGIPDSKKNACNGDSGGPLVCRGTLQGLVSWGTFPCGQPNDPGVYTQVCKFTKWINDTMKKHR

inhibition | SMILES
Active | CC(C)(C(=O)NC1CCCCC1)N(C(=O)Cc1ccc(O)cc1)[C@H]1CO[C@H]2[C@@H]1OC[C@@H]2N(C(=O)Cc1ccc(O)cc1)C(C)(C)C(=O)NC1CCCCC1
Active | CC(C)(C(=O)NC1CCCCC1)N(C(=O)c1ccccc1)[C@H]1CO[C@H]2[C@@H]1OC[C@H]2OCc1ccccc1
Active | CC(C)(C(=O)NC1CCCCC1)N(C(=O)Cc1ccc(F)cc1)[C@H]1CO[C@H]2[C@@H]1OC[C@H]2OCc1ccccc1
Active | CC(C)(C(=O)NC1CCCCC1)N(C(=O)Cc1ccc(O)cc1)[C@H]1CO[C@H]2[C@@H]1OC[C@H]2OCc1ccccc1
Active | COc1ccc(CC(=O)N([C@H]2CO[C@H]3[C@@H]2OC[C@H]3OCc2ccccc2)C(C)(C)C(=O)NC2CCCCC2)cc1
